In patent publication US11058690B2, “Use of cytochrome bc1 complex inhibitor in preparing pharmaceutical composition” (BEIJING WEILANZHIYUAN MEDICAL TECHNOLOGY CO., LTD., priority 2017, dated 2021):

Test system: MLC20
Test: phosphorylation of MLC20 in rat uterine smooth muscle cells induced by PGF2α (Western blotting)
Type: cell-based
Conditions: 5 μM and 10 μM pretreatment; PGF2α stimulation 5 minutes
Description: A tissue mass culture method was adopted: rats treated with diethylstilbestrol were sacrificed through dislocation and soak in 75% alcohol for disinfection, open the abdominal cavity under an aseptic condition, separate the uterus, transfer it to a plate, cut open the uterus to remove the outer membrane of the uterus, gently scrape off the inner membrane of the uterus with a blade, gently peel off the outer membrane of the uterus with a tweezer, cut the intact smooth muscle into small pieces of less than 1×1×1 mm^3, uniformly stick them to the wall of a culture bottle, add a culture solution with the bottom up, gently turn over after culture at 5% CO2 and 37° C. for 3-4 hours, and soak in an RPMI-1640 culture solution (containing 20% calf bovine serum) for about one week until the cells can be connected into pieces to form monolayer cultured cells. At this time, the culture solution in the bottle was poured out, the tissue masses in the bottle were washed twice with PBS and removed, and a proper amount of 0.25% trypsin was added. Calf bovine serum was added to stop the reaction when most cells contracted and became round under microscope, the liquid was poured out, and the cells were washed twice with PBS and added with a proper amount of RPMI-1640, and the eluted cells were gently washed with a pipette to prepare a cell suspension for later use. […]

CO/C=C(/C(=O)OC)c1ccccc1COc1cc(C(F)(F)F)nc(OC(C)C)n1 [FAPM, fluacrypyrim]
phosphorylation of MLC20 (gray analysis, words): significantly inhibited
